How the values were obtained:
KRAS Q61H = KRAS Q61H (Homo sapiens, UniProt P01116+P62937, Q61H); assay: Disruption of BRAF RBD interaction with Ras (FRET / MOA assay, with Cyclophilin A); format: biochemical; details: KRAS Q61H; read-out: KRAS Q61H FRET data IC50
Summary of the method: (§1)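 TR-FRET in 25 mM HEPES pH 7.3, 100 mM NaCl, 5 mM MgCl2, 0.1% BSA: 25 μM Cyclophilin A, 12.5 nM His6-Ras-GMPPNP, 50 nM GST-BRAF RBD with compound (10-point 3-fold series from 30 μM), 3 h at 25° C. Anti-His Eu/anti-GST APC added, 1.5 h more; IC50 from decreased FRET ratio versus DMSO.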

NRAS WT = NRAS WT (Homo sapiens, UniProt P01111+P62937); assay: as above; format: biochemical; details: NRAS WT; read-out: NRAS WT FRET data IC50
Summary of the method: as §1

NRAS Q61R = NRAS Q61R (Homo sapiens, UniProt P01111+P62937, Q61R); assay: as above; format: biochemical; details: NRAS Q61R; read-out: NRAS Q61R FRET data IC50
Summary of the method: as §1

NRAS Q61K = NRAS Q61K (Homo sapiens, UniProt P01111+P62937, Q61K); assay: as above; format: biochemical; details: NRAS Q61K; read-out: NRAS Q61K FRET data IC50
Summary of the method: as §1

NRAS G12C = NRAS G12C (Homo sapiens, UniProt P01111+P62937, G12C); assay: as above; format: biochemical; details: NRAS G12C; read-out: NRAS G12C FRET data IC50
KRAS G12C = KRAS G12C (Homo sapiens, UniProt P01116+P62937, G12C); assay: as above; format: biochemical; details: read-out: KRAS G12C FRET data, IC50
Summary of the method: (§2)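 TR-FRET: nucleotide-loaded K-Ras mutant or WT with Cyclophilin A and BRAF RBD, compound 10-point 3-fold from 30 μM final, 3 h at 25° C, then anti-His Eu (10 nM) and anti-GST APC (50 nM) for 1.5 h. Decreased FRET ratio versus DMSO gives IC50.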

KRAS G12V = KRAS G12V (Homo sapiens, UniProt P01116+P62937, G12V); assay: as above; format: biochemical; details: KRAS G12V; read-out: KRAS G12V FRET data IC50
Summary of the method: as §2

KRAS G12S = KRAS G12S (Homo sapiens, UniProt P01116+P62937, G12S); assay: as above; format: biochemical; details: read-out: KRAS G12S FRET data, IC50
Summary of the method: as §2

KRAS G13D = KRAS G13D (Homo sapiens, UniProt P01116+P62937, G13D); assay: as above; format: biochemical; details: KRAS G13D; read-out: KRAS G13D FRET data IC50
Summary of the method: as §2

KRAS G12D = KRAS G12D (Homo sapiens, UniProt P01116+P62937, G12D); assay: as above; format: biochemical; details: read-out: KRAS G12D FRET data, IC50
Summary of the method: as §2

KRAS G13C = KRAS G13C (Homo sapiens, UniProt P01116+P62937, G13C); assay: as above; format: biochemical; details: read-out: KRAS G13C FRET data, IC50
Summary of the method: as §2

KRAS WT = KRAS WT (Homo sapiens, UniProt P01116+P62937); assay: as above; format: biochemical; details: KRAS WT; read-out: KRAS WT FRET data IC50
Summary of the method: as §2

NCI-H358 (K-Ras G12C) = assay: CellTiter-Glo cell viability assay, 5-day treatment; format: cell-based; details: Homo sapiens, NCI-H358, 120 h, 5-day treatment; read-out: H358 Cell Viability assay data (K-Ras G12C, IC50)
Summary of the method: (§3)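 Five-day compound treatment of plated cells; luminescent read after ~30 min at RT. Percent-of-DMSO data fit to a four-parameter logistic model.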

Capan-1 (K-Ras G12V) = assay: as above; format: cell-based; details: Homo sapiens, CAPAN-1, 120 h, 5-day treatment; read-out: Capan-1 Cell Viability assay data (K-Ras G12V, IC50)
Summary of the method: as §3

Sequence of KRAS G12V (P01116 1-169 isoform P01116-2 G12V limits assumed): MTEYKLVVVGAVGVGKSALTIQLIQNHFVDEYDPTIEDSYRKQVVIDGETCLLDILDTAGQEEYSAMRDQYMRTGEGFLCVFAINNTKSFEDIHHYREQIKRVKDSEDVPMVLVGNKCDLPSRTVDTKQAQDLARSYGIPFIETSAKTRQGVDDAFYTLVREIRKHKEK
Sequence of KRAS G12V (P62937 whole entry): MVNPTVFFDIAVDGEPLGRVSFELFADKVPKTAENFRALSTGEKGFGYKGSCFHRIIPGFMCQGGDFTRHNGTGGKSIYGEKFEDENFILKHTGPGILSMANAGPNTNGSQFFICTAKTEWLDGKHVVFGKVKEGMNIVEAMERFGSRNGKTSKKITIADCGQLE
Sequence of NRAS G12C (P01111 whole entry G12C): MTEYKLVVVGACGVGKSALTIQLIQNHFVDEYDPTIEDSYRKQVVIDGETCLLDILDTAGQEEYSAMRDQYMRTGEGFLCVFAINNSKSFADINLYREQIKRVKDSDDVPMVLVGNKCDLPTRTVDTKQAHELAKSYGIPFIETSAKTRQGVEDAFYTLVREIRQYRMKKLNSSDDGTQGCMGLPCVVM
Sequence of NRAS G12C (P62937 whole entry): as the sequence (P62937 whole entry) above
Sequence of KRAS G12C (P01116 1-169 isoform P01116-2 G12C): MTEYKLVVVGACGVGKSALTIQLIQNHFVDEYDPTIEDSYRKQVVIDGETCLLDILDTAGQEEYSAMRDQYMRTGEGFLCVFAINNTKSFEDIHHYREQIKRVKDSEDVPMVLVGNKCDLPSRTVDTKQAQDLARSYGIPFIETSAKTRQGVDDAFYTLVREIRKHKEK
Sequence of KRAS G12C (P62937 whole entry): as the sequence (P62937 whole entry) above
Sequence of NRAS Q61R (P01111 whole entry Q61R): as the sequence (P01111 whole entry G12C) above, with C12G, Q61R counted along it
Sequence of NRAS Q61R (P62937 whole entry): as the sequence (P62937 whole entry) above
Sequence of KRAS WT (P01116 1-169 isoform P01116-2 limits assumed): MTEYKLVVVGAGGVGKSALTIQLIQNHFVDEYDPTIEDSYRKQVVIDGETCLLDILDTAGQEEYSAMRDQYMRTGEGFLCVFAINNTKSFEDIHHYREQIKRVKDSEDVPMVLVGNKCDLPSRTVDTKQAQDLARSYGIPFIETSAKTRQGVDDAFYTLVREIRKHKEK
Sequence of KRAS WT (P62937 whole entry): as the sequence (P62937 whole entry) above
Sequence of NRAS WT (P01111 whole entry): as the sequence (P01111 whole entry G12C) above, with C12G counted along it
Sequence of NRAS WT (P62937 whole entry): as the sequence (P62937 whole entry) above
Sequence of KRAS Q61H (P01116 1-169 isoform P01116-2 Q61H limits assumed): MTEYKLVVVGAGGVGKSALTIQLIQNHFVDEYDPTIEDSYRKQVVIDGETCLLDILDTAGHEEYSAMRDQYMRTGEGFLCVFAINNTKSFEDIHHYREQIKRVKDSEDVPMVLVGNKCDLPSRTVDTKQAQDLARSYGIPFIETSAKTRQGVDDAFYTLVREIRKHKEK
Sequence of KRAS Q61H (P62937 whole entry): as the sequence (P62937 whole entry) above
Sequence of KRAS G12D (P01116 1-169 isoform P01116-2 G12D limits assumed): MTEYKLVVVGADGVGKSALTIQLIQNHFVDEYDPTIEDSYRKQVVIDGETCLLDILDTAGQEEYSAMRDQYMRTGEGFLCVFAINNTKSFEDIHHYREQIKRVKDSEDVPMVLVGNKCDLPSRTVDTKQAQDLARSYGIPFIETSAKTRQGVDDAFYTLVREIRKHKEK
Sequence of KRAS G12D (P62937 whole entry): as the sequence (P62937 whole entry) above
Sequence of NRAS Q61K (P01111 whole entry Q61K): as the sequence (P01111 whole entry G12C) above, with C12G, Q61K counted along it
Sequence of NRAS Q61K (P62937 whole entry): as the sequence (P62937 whole entry) above
Sequence of KRAS G13C (P01116 1-169 isoform P01116-2 G13C): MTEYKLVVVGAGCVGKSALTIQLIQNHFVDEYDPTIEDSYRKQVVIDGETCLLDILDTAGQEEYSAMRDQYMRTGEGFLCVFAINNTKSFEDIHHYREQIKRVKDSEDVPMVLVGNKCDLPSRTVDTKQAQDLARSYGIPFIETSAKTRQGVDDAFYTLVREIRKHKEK
Sequence of KRAS G13C (P62937 whole entry): as the sequence (P62937 whole entry) above
Sequence of KRAS G13D (P01116 1-169 isoform P01116-2 G13D limits assumed): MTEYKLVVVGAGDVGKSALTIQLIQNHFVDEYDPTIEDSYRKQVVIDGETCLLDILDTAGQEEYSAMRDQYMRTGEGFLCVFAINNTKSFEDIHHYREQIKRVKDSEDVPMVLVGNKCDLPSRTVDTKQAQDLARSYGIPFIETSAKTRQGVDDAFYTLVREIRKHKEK
Sequence of KRAS G13D (P62937 whole entry): as the sequence (P62937 whole entry) above
Sequence of KRAS G12S (P01116 1-169 isoform P01116-2 G12S limits assumed): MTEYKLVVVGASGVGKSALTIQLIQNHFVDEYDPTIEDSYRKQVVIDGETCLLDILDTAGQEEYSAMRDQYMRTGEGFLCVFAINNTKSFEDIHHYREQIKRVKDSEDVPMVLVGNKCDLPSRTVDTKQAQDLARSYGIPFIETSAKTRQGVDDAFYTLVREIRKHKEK
Sequence of KRAS G12S (P62937 whole entry): as the sequence (P62937 whole entry) above

| SMILES | IC50 (KRAS Q61H) | IC50 (NRAS WT) | IC50 (NRAS Q61R) | IC50 (NRAS Q61K) | IC50 (NRAS G12C) | IC50 (KRAS G12C) | IC50 (KRAS G12V) | IC50 (KRAS G12S) | IC50 (KRAS G13D) | IC50 (KRAS G12D) | IC50 (KRAS G13C) | IC50 (KRAS WT) | IC50 (NCI-H358 (K-Ras G12C)) | IC50 (Capan-1 (K-Ras G12V)) |
| --- | --- | --- | --- | --- | --- | --- | --- | --- | --- | --- | --- | --- | --- | --- |
| CCn1c(-c2cccnc2[C@H](C)OC)c2c3cc(ccc31)-c1csc(n1)C[C@H](NC(=O)[C@H](C(C)C)N(C)C(=O)N1CC(N(C)C)C1)C(=O)N1CCC[C@H](N1)C(=O)OCC(C)(C)C2 (racemic) [Example A170] | 0.1 to 1 µM | 0.1 to 1 µM | 0.1 to 1 µM | 0.01 to 0.1 µM | 0.1 to 1 µM | 0.1 to 1 µM | 0.1 to 1 µM | 0.1 to 1 µM | 0.1 to 1 µM | 1 to 10 µM | 0.1 to 1 µM | 0.1 to 1 µM | 0.01 to 0.1 µM | 0.01 to 0.1 µM |
| CCn1c(-c2cccnc2[C@H](C)OC)c2c3cc(ccc31)-c1csc(n1)C[C@H](NC(=O)[C@H](C(C)C)N(C)C(=O)N1CCC[C@H]1CN(C)C)C(=O)N1CCC[C@H](N1)C(=O)OCC(C)(C)C2 [Example A519] | 0.1 to 1 µM | 0.1 to 1 µM | 1 to 10 µM | 1 to 10 µM | 0.1 to 1 µM | 0.1 to 1 µM | 1 to 10 µM | 1 to 10 µM | 1 to 10 µM | 1 to 10 µM | 1 to 10 µM | 0.1 to 1 µM | 1 to 10 µM | 1 to 10 µM |
| CCn1c(-c2cccnc2[C@H](C)OC)c2c3cc(ccc31)-c1csc(n1)C[C@H](NC(=O)[C@H](C(C)C)N(C)C(=O)N1CC[C@@H](N(C)C)C1)C(=O)N1CCC[C@H](N1)C(=O)OCC(C)(C)C2 (atropisomer, axis not shown) [Example A566] | 0.01 to 0.1 µM | 0.1 to 1 µM | 0.1 to 1 µM | 0.01 to 0.1 µM | 0.1 to 1 µM | 0.1 to 1 µM | 0.1 to 1 µM | 0.1 to 1 µM | 0.1 to 1 µM | 0.1 to 1 µM | 0.1 to 1 µM | 0.1 to 1 µM | 0.01 to 0.1 µM | 0.01 to 0.1 µM |
| CCn1c(-c2cccnc2[C@H](C)OC)c2c3cc(ccc31)-c1cc(O)cc(c1)C[C@H](NC(=O)[C@H](C(C)C)N(C)C(=O)[C@H]1CCN(C(=O)OC3COC3)C1)C(=O)N1CCC[C@H](N1)C(=O)OCC(C)(C)C2 [Example A204] | 0.01 to 0.1 µM | 0.01 to 0.1 µM | 0.1 to 1 µM | 0.1 to 1 µM | 0.01 to 0.1 µM | 0.01 to 0.1 µM | 0.01 to 0.1 µM | 0.01 to 0.1 µM | 0.01 to 0.1 µM | 0.1 to 1 µM | 0.01 to 0.1 µM | 0.01 to 0.1 µM | 0.01 to 0.1 µM | 0.01 to 0.1 µM |
| CCn1c(-c2cccnc2[C@H](C)OC)c2c3cc(ccc31)-c1csc(n1)C[C@H](NC(=O)[C@H](C(C)C)N(C)C(=O)N1CCN(C(=O)[C@H]3CCCN3C)CC1)C(=O)N1CCC[C@H](N1)C(=O)OCC(C)(C)C2 (atropisomer, axis not shown) [Example A595] | 0.01 to 0.1 µM | 0.1 to 1 µM | 0.1 to 1 µM | 0.01 to 0.1 µM | 0.01 to 0.1 µM | 0.01 to 0.1 µM | 0.1 to 1 µM | 0.1 to 1 µM | 0.1 to 1 µM | 0.1 to 1 µM | 0.1 to 1 µM | 0.1 to 1 µM | 0.01 to 0.1 µM | 0.1 to 1 µM |
| CCn1c(-c2cccnc2[C@H](C)OC)c2c3cc(ccc31)-c1csc(n1)C[C@H](NC(=O)[C@H]1CCO1)C(=O)N1CCC[C@H](N1)C(=O)OCC(C)(C)C2 [Example A360] | 0.1 to 1 µM | 0.1 to 1 µM | 1 to 10 µM | 0.1 to 1 µM | 0.1 to 1 µM | 0.1 to 1 µM | 0.1 to 1 µM | 0.1 to 1 µM | 1 to 10 µM | 1 to 10 µM | 0.1 to 1 µM | 0.1 to 1 µM | 0.1 to 1 µM | 0.1 to 1 µM |

— patent publication US20230233569A1 (Revolution Medicines, Inc., priority 2020, published 2023)
